In PubChem BioAssay (NCI):
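Briefly, cells in 96-well plates were exposed to five compound concentrations for 48 h, and endpoints were estimated by linear interpolation. GI50 = concentration required for 50% inhibition of growth. The concentration for full growth arrest is given as TGI.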

Tests used:
Experiment in all cases: NCI anticancer screen, dose series, 48 h
OVCAR-8 ovarian = test system: OVCAR-8 ovarian
HOP-92 NSCLC = test system: HOP-92 NSCLC
A549 NSCLC = test system: A549 NSCLC
MALME-3M melanoma = test system: MALME-3M melanoma
786-0 renal = test system: 786-0 renal
NCI-H23 lung = test system: NCI-H23 lung
RPMI-8226 leukemia = test system: RPMI-8226 leukemia
HL-60(TB) leukemia = test system: HL-60(TB) leukemia
SNB-19 CNS = test system: SNB-19 CNS
DU-145 prostate = test system: DU-145 prostate
KM12 colon = test system: KM12 colon
NCI-H460 lung = test system: NCI-H460 lung
SF-539 CNS = test system: SF-539 CNS

| SMILES | TGI (OVCAR-8 ovarian) | TGI (HOP-92 NSCLC) | TGI (A549 NSCLC) | TGI (MALME-3M melanoma) | TGI (786-0 renal) | TGI (NCI-H23 lung) | TGI (RPMI-8226 leukemia) | TGI (HL-60(TB) leukemia) | TGI (SNB-19 CNS) | TGI (DU-145 prostate) | TGI (KM12 colon) | TGI (NCI-H460 lung) | TGI (SF-539 CNS) | GI50 (HOP-92 NSCLC) | GI50 (A549 NSCLC) | GI50 (MALME-3M melanoma) | GI50 (RPMI-8226 leukemia) | GI50 (HL-60(TB) leukemia) | GI50 (NCI-H460 lung) | GI50 (KM12 colon) |
| --- | --- | --- | --- | --- | --- | --- | --- | --- | --- | --- | --- | --- | --- | --- | --- | --- | --- | --- | --- | --- |
| COP(=O)(OC)C(O)/C=C/c1ccco1 (stereo unspecified) | > 100 µM | > 100 µM | > 100 µM | > 100 µM | > 100 µM | > 100 µM | > 100 µM | > 100 µM | > 100 µM | > 100 µM | > 100 µM |  |  |  |  |  |  |  |  |  |
| O=c1c[n+](-c2ccccc2)[nH]o1 |  | > 100 µM | > 100 µM | > 100 µM | > 100 µM | > 100 µM | > 100 µM | > 100 µM | > 100 µM | > 100 µM | > 100 µM | > 100 µM | > 100 µM |  |  |  |  |  |  |  |
| COc1ccc(-c2oc3cc(OC)c(OC)c(OC)c3c(=O)c2OC)cc1OC | > 100 µM | > 100 µM | > 100 µM | > 100 µM | > 100 µM | > 100 µM |  | 83.4 µM | > 100 µM | > 100 µM | > 100 µM | > 100 µM | > 100 µM |  |  |  |  |  |  |  |
| O=C1OC2c3ccccc3C(=O)C2(c2ccccc2)N1c1ccccc1 (stereo unspecified) | > 200 µM | > 200 µM | > 200 µM | > 200 µM | > 200 µM | > 200 µM | > 200 µM | > 200 µM | > 200 µM | > 200 µM | > 200 µM | > 200 µM | > 200 µM |  |  |  |  |  |  |  |
| N#CC(C#N)=Cc1ccc(C=C2SC3=C(SCCS3)S2)s1 | > 100 µM | > 100 µM | > 100 µM | > 100 µM | > 100 µM | 95.3 µM | 6.28 µM | 7.03 µM | > 100 µM | > 100 µM | > 100 µM | > 100 µM | 28.1 µM |  |  |  |  |  |  |  |
| COc1cc(/C=C/c2sc3ccccc3[n+]2C)ccc1N(C)C |  | 34.9 µM | > 100 µM | 19.8 µM | 24.8 µM | 27.7 µM | 16.2 µM | 3.88 µM | 26.8 µM | 35 µM | 21.7 µM | 38 µM | 31.6 µM | 13 µM | 7.08 µM | 5.85 µM | 3.15 µM | 1.75 µM | 13.4 µM | 10.1 µM |
| COCC(=O)OC1CCn2c1nc1c2C(=O)C(C)=C(NC(C)=O)C1=N (stereo unspecified) | 7.19 µM | 9.11 µM | 42.5 µM | 2.7 µM | 9.3 µM | 23.8 µM | 6.79 µM | 4.54 µM | 38.1 µM | 36.7 µM | 38.2 µM | 31 µM | 3.87 µM |  |  |  |  |  |  |  |
| NC1=NN(c2ccccc2)C2(c3ccncc3C(=O)O)C1C(N)=NN2c1ccccc1 (stereo unspecified) | > 100 µM | > 100 µM | > 100 µM | > 100 µM | > 100 µM | > 100 µM | > 100 µM | > 100 µM | > 100 µM | > 100 µM | > 100 µM | > 100 µM | > 100 µM |  |  |  |  |  |  |  |
| CC(C)/C(Cl)=N\OC(=O)Nc1ccc(F)c([N+](=O)[O-])c1 | 10.9 µM | 4.77 µM | 56 µM | 3 µM | 7.87 µM | 41.2 µM | 4.87 µM | 2.85 µM | 30.6 µM | 32.8 µM | 28.5 µM | 7.89 µM | 7.82 µM |  |  |  |  |  |  |  |
| O=C1NC(N/N=C/c2ccccc2)=N/C1=C\c1cccs1 | 29.3 µM | 32.4 µM | > 100 µM | 27.8 µM | 44.6 µM | 40.7 µM | > 41 µM | 36.7 µM | > 87.3 µM | 56.5 µM | > 70.9 µM | > 100 µM | 26.6 µM |  |  |  |  |  |  |  |
| O=C(Nc1ccccc1)Nn1c(-c2cccs2)nc2ccc(I)cc2c1=O | > 100 µM | 59.7 µM | 49.4 µM |  | > 100 µM | > 100 µM | 51.8 µM | 21.8 µM | > 100 µM | 52.3 µM | 94.8 µM | > 100 µM | > 100 µM |  |  |  |  |  |  |  |
| CN(C)CCCNC(=O)c1cc(NC(=O)c2cc(NC(=O)[C@H]3C[C@@H]3C(=O)Nc3cc(C(=O)Nc4cc(C(=O)NCCCN(C)C)n(C)c4)n(C)c3)cn2C)cn1C | > 100 µM | 7.96 µM | > 100 µM | > 100 µM | > 100 µM | > 100 µM | > 100 µM | > 100 µM | > 100 µM | > 100 µM | > 100 µM | > 100 µM | > 100 µM |  |  |  |  |  |  |  |
| c1nc(SSc2ncnc3nc[nH]c23)c2[nH]cnc2n1 | > 100 µM | > 100 µM | > 100 µM | 18.5 µM | > 100 µM | 9.54 µM | > 100 µM | > 100 µM | > 100 µM | > 100 µM | > 44.1 µM | > 100 µM | > 100 µM |  |  |  |  |  |  |  |
| O=C1c2ccccc2C(=O)c2c1oc(=O)c1ccccc21 | 15.1 µM | 11.9 µM | > 25 µM | 5.79 µM | 14 µM | 10.6 µM | 19.2 µM | 1.71 µM | > 25 µM | 14 µM | 12.8 µM | 10.9 µM | > 25 µM |  |  |  |  |  |  |  |
| CC1(C)CCCCCC(C)(CCCCCCCCCCCO)C1=O (stereo unspecified) | 31.2 µM | 31.2 µM | 29 µM | 29.8 µM | 29.8 µM | 30.3 µM | 47.2 µM | 31.8 µM | 31.2 µM | 31.8 µM | 32.7 µM | 31.9 µM | 30.9 µM |  |  |  |  |  |  |  |
| COc1ccc(C(=O)/C=C/c2ccc(OCC(=O)O)cc2)cc1 | > 100 µM | > 100 µM | > 100 µM | > 100 µM | > 100 µM | > 100 µM | > 100 µM | > 100 µM | > 100 µM | > 100 µM | > 100 µM |  | > 100 µM |  |  |  |  |  |  |  |
| CCOC(=O)NC(NNc1ccc([N+](=O)[O-])cc1[N+](=O)[O-])(C(F)(F)F)C(F)(F)F | > 100 µM | 47.3 µM | > 100 µM | > 100 µM | > 100 µM | > 100 µM | 47.4 µM | 58.9 µM | > 100 µM | > 100 µM | > 100 µM | > 100 µM | 74.3 µM |  |  |  |  |  |  |  |
